From US8227511B2, “Substituted chromanol derivatives and their use” (Bayer Intellectual Property GmbH, priority 2006, dated 2012) come the findings set out here.

Test [1] concerns the target T1, CETP (Homo sapiens, UniProt P11597).
T1 construct: CETP is obtained in partially purified form from human plasma by differential centrifugation and column chromatography and used for the test; from tissue; host or cells: human plasma
T1 sequence (P11597 18-493): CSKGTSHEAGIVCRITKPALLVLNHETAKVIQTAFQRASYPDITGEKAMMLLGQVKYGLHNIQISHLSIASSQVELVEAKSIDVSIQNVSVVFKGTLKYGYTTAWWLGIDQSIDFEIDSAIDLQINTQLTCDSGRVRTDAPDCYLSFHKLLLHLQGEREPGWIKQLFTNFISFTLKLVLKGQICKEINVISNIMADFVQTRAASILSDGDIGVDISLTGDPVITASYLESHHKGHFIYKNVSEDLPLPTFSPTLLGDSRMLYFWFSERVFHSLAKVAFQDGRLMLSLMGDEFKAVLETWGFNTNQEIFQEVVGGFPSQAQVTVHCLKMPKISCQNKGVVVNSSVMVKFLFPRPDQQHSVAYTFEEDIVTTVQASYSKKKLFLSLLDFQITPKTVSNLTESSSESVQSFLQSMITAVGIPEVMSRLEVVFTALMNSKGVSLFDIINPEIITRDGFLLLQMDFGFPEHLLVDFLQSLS
Nature of the test: CETP-SPA test. It counts as biochemical. To be noted: transfer of 3H-cholesterol ester from human HDL to biotinylated LDL; 37° C. for 18 h. The method, then:
(§1) CETP is obtained in partially purified form from human plasma by differential centrifugation and column chromatography and used for the test. To this end, human plasma is adjusted to a density of 1.21 g per ml using NaBr and centrifuged at 4° C. at 50 000 rpm for 18 h. The bottom fraction (d>1.21 g/ml) is applied to a Phenyl-Sepharose 26/10 HP fast flow-column (Pharmacia), washed with PBS buffer and then eluted with distilled water. 10 parts of PBS buffer and 1% (w/v) BSA are added to the eluate. The CETP-active fractions are pooled.
For testing of the CETP activity, the transfer of ^3H-cholesterol ester from human HD lipoproteins to biotinylated LD lipoproteins is measured. The reaction is ended by addition of streptavidin-SPA® beads (Amersham) and the transferred radioactivity is determined directly in a liquid scintillation counter.
In the test batch, 10 μl of HDL-3H-cholesterol ester (about 50 000 cpm) are incubated at 37° C. for 18 h with 10 μl of biotin-LDL (Amersham) in 50 mM Hepes/0.15 M NaCl/0.1% bovine serum albumin (RSA)/0.05% NaN3 pH 7.4 containing 10 μl of CETP (1 mg/ml) and 3 μl of a solution of the substance to be tested (dissolved in 10% DMSO/1% RSA). 200 μl of the SPA-streptavidin bead solution (TRKQ 7005) are then added, incubated further with shaking for 1 h and then measured in a scintillation counter. Corresponding incubations with 10 μl of buffer, 10 μl of CETP at 4° C. and 10 μl of CETP at 37° C. serve as controls.
The activity transferred in the control batches with CETP at 37° C. is rated as 100% transfer. The substance concentration at which this transfer is reduced to half is specified as the IC50 value.

The target in test [2] is T1, CETP. Nature of the test: CETP fluorescence test with enriched CETP. It counts as biochemical. To be noted: enriched CETP fraction from human plasma; transfer of fluorescent cholesterol ester between liposomes; 37° C. for 4 h. Here is the method:
as §1
Measurement of the CETP-catalyzed transfer of a fluorescent cholesterol ester between liposomes [modified according to the procedure of Bisgaier et al., J. Lipid Res. 34, 1625 (1993)]:
For the production of the donor liposomes, 1 mg of cholesteryl 4,4-difluoro-5,7-dimethyl-4-bora-3a,4a-diaza-s-indacene-3-dodecanoate (cholesteryl BODIPY® FL C12, Molecular Probes) is dissolved in 2 ml of chloroform with 5.35 mg of triolein and 6.67 mg of phosphatidylcholine. The solvent is removed at medium temperature in a SpeedVac and the residue is dried under high vacuum for 1 h. The residue is then dissolved in 600 μl of dioxane with gentle warming in an ultrasonic bath and this solution is added very slowly with ultrasonication to 63 ml of 50 mM Tris/HCl, 150 mM NaCl, 2 mM EDTA buffer pH 7.3 at room temperature. The suspension is then ultrasonicated under an N2 atmosphere for 30 minutes in the Branson ultrasonic bath at about 50 watts, the temperature being kept at about 20° C.
The acceptor liposomes are obtained analogously from 86 mg of cholesteryl oleate, 20 mg of triolein and 100 mg of phosphatidylcholine dissolved in 1.2 ml of dioxane and 114 ml of the above buffer by ultrasonication at 50 watts (20° C.) for 30 minutes.
For testing, a test mix consisting of 1 part of above buffer, 1 part of donor liposomes and 2 parts of acceptor liposomes is used.
50 μl of test mix are treated with 48 μl of enriched CETP fraction (1-3 μg), obtained from human plasma by means of hydrophobic chromatography, and 2 μl of a solution of the substance to be investigated in DMSO and incubated at 37° C. for 4 h.
The change in the fluorescence at 485/535 nm is a measure of the CE transfer; the inhibition of the transfer in comparison to the control batch without substance is determined.

Test [3] has as its system transgenic hCETP mice. Nature of the test: Measurement of the in vivo activity in transgenic hCETP mice. To be noted: perorally once a day on 3 days, percentage change compared with the starting value. The method, then:
To determine the oral action on lipoproteins and triglycerides, test substance is administered perorally to transgenic mice [Dinchuk et al., BBA, 1295-1301 (1995)] using a stomach tube once a day on 3 days. For this purpose, the substances are dissolved in 10% Solutol HS 15/10% ethanol/80% of a 0.9% strength sodium chloride solution; the administration volume is generally 10 ml per kg of body weight. Before the start of the experiment, blood is withdrawn from the mice retro-orbitally in order to determine cholesterol and triglycerides in the serum. The serum is obtained as described above for hamsters by incubation at room temperature for 30 min and subsequent centrifugation at 6000 g. On the day after the last administration of substance, blood is again withdrawn from the mice in order to determine lipoproteins and triglycerides. The changes in the parameters measured are expressed as the percentage change compared with the starting value.

Consider `CC(C)c1cc2c(c(-c3ccc(F)cc3)c1[C@@H](F)c1ccc(C(F)(F)F)cc1)[C@@H](O)CC1(CCC1)O2` [Example 30, (4S)-5-(4-Fluorophenyl)-6-{(S)-fluoro[4-(trifluoromethyl)phenyl]methyl}-7-isopropyl-3,4-dihydro-spiro[chromen-2,1′-cyclobutan]-4-ol], for which the values for the IC50 in test [1] and in test [2] were 12 nM and 18 nM, respectively. Besides, the “% increase of HDL after 3 d (dose: 3 × 3 mg/kg)” value (shortened to “% increase of HDL after 3 d”) in test [3] was found to be 83%.

For the compound `CC(C)c1cc2c(c(C3CCCC3)c1[C@@H](F)c1ccc(C(F)(F)F)cc1)[C@@H](O)CC1(CCC1)O2` [Example 42, (4S)-5-Cyclopentyl-6-{(S)-fluoro[4-(trifluoromethyl)phenyl]methyl}-7-isopropyl-3,4-dihydrospiro-[chroman-2,1′-cyclobutan]-4-ol], the IC50 in test [1] stood at 21 nM; in test [2], 26 nM. Also, the “% increase of HDL after 3 d” value in test [3] is given as 81%.

On to `CC(C)c1cc2c(c(-c3ccc(F)cc3)c1Cc1ccc(C(C)(C)C)cc1)[C@@H](O)CC1(CCC1)O2` [Example 36, (4S)-6-(4-tert-Butylbenzyl)-5-(4-fluorophenyl)-7-isopropyl-3,4-dihydrospiro[chromen-2,1′-cyclo-butan]-4-ol], for which the IC50 was 6 nM in test [1] and 28 nM in test [2]. Moreover, in test [3], the “% increase of HDL after 3 d” value came to 40%.

For `CC(C)c1cc2c(c(-c3ccc(F)cc3)c1[C@@H](O)c1ccc(C(F)(F)F)cc1)[C@@H](O)CC1(CCC1)O2` [Example 28, (4S)-5-(4-Fluorophenyl)-6-{(S)-hydroxy[4-(trifluoromethyl)phenyl]methyl}-7-isopropyl-3,4-dihydrospiro[chromen-2,1′-cyclobutan]-4-ol], the half-inhibitory concentration (IC50) in test [1] turned out to be 22 nM; in test [2], 77 nM. Also, the “% increase of HDL after 3 d” value in test [3] was 25%.
